Test results: ChEMBL document CHEMBL1138109, “Semicarbazone-based inhibitors of cathepsin K, are they prodrugs for aldehyde inhibitors?” (Bioorg Med Chem Lett, 2006)
≈ marks a conversion by molar mass, not a printed value.

tested on: not listed separately; assay: Oral bioavailability in male Han Wistar rat; type: ADME, organism-based; conditions: in vivo

SMILES	bioavailability
CCCC[C@@H](/C=N/NC(=O)N1CCc2ccccc21)NC(=O)OC(C)(C)C	0%
CCCC[C@@H](/C=N/NS(=O)(=O)N(C)C)NC(=O)OC(C)(C)C	26%

Further lines, results first:

bioavailability	SMILES
0%	CCCC[C@@H](/C=N/NC(=O)N1CCOCC1)NC(=O)O[C@@H](C)Cc1ccccc1
3.9%	CCCC[C@@H](/C=N/NC(=O)N1CCOCC1)NC(=O)OC(C)(C)C
0%	CCCC[C@@H](/C=N/NC(=O)N1CCCC1)NC(=O)OC(C)(C)C

species on record: Rattus norvegicus; assay: (§1) Volume of distribution in Han Wistar rat; type: ADME, organism-based; conditions: in vivo

Vdss	SMILES
0.22 L/kg	CCCC[C@@H](/C=N/NC(=O)N1CCOCC1)NC(=O)O[C@@H](C)Cc1ccccc1
0.54 L/kg	CCCC[C@@H](/C=N/NC(=O)N1CCc2ccccc21)NC(=O)OC(C)(C)C
0.43 L/kg	CCCC[C@@H](/C=N/NC(=O)N1CCCC1)NC(=O)OC(C)(C)C

tested on: not listed separately; assay: as §1; type: ADME, organism-based; conditions: Han Wistar, in vivo

Vd	SMILES
0.39 L/kg	CCCC[C@@H](/C=N/NS(=O)(=O)N(C)C)NC(=O)OC(C)(C)C
0.57 L/kg	CCCC[C@@H](/C=N/NC(=O)N1CCOCC1)NC(=O)OC(C)(C)C

target: T1, Pro-cathepsin H (Homo sapiens, UniProt P09668); assay: Inhibition of recombinant human cathepsin H in a fluorescence assay; conditions: not given
T1 sequence (P09668 whole entry): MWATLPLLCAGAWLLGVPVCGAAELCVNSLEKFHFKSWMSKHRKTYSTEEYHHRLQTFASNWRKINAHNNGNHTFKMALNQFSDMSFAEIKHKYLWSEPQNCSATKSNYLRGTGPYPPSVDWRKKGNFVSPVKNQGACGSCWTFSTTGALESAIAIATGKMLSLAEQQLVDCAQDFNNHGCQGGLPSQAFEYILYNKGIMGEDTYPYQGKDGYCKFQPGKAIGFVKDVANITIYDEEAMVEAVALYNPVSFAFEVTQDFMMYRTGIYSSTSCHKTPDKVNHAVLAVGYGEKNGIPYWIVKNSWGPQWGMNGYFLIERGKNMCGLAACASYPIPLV

SMILES	IC50
CCCC[C@@H](C=O)NC(=O)O[C@@H](C)Cc1ccccc1	40 nM
CCCC[C@@H](/C=N/NC(=O)N1CCc2ccccc21)NC(=O)OC(C)(C)C	> 13000 nM
CCCC[C@@H](C=O)NC(=O)OC(C)(C)C	> 13000 nM
CCCC[C@@H](C=O)NC(=O)OC1(Cc2ccccc2)CCCC1	> 13000 nM
CCCC[C@@H](C=O)NC(=O)O[C@H](Cc1ccccc1)C(C)C	18 nM

Now from value to compound:

IC50	SMILES
230 nM	CCCC[C@@H](/C=N/NC(=O)N1CCOCC1)NC(=O)O[C@@H](C)Cc1ccccc1
190 nM	CCCC[C@@H](/C=N/NC(=O)N1CCOCC1)NC(=O)O[C@H](Cc1ccccc1)C(C)C
> 13000 nM	CCCC[C@@H](/C=N/NC(=O)N1CCOCC1)NC(=O)OC(C)(C)C
> 13000 nM	CCCC[C@@H](/C=N/NC(=O)N1CCc2ccccc21)NC(=O)OC1(Cc2ccccc2)CCCC1

target: Cathepsin B (Homo sapiens, UniProt P07858); assay: Inhibition of recombinant human cathepsin B in a fluorescence assay; conditions: not given

SMILES	IC50
CCCC[C@@H](/C=N/NC(=O)N1CCc2ccccc21)NC(=O)OC(C)(C)C	35000 nM
CCCC[C@@H](C=O)NC(=O)OC(C)(C)C	32000 nM
CCCC[C@@H](C=O)NC(=O)O[C@H](Cc1ccccc1)C(C)C	27 nM

Other lines, results leading:

IC50	SMILES
270 nM	CCCC[C@@H](/C=N/NC(=O)N1CCOCC1)NC(=O)O[C@@H](C)Cc1ccccc1
18 nM	CCCC[C@@H](/C=N/NC(=O)N1CCOCC1)NC(=O)O[C@H](Cc1ccccc1)C(C)C
32000 nM	CCCC[C@@H](/C=N/NC(=O)N1CCOCC1)NC(=O)OC(C)(C)C
1800 nM	CCCC[C@@H](/C=N/NC(=O)N1CCc2ccccc21)NC(=O)OC1(Cc2ccccc2)CCCC1

tested on: not listed separately; assay: Solubility in fasted state-simulated intestinal fluid at pH 6.8; type: physicochemical; conditions: not given

SMILES	solubility
CCCC[C@@H](/C=N/NC(=O)N1CCc2ccccc21)NC(=O)OC(C)(C)C	33 µg/mL (≈ 88.1 µM)
CCCC[C@@H](/C=N/NS(=O)(=O)N(C)C)NC(=O)OC(C)(C)C	380 µg/mL (≈ 1130 µM)

The next lines start with the values.

solubility	SMILES
60 µg/mL (≈ 148 µM)	CCCC[C@@H](/C=N/NC(=O)N1CCOCC1)NC(=O)O[C@@H](C)Cc1ccccc1
120 µg/mL (≈ 350 µM)	CCCC[C@@H](/C=N/NC(=O)N1CCOCC1)NC(=O)OC(C)(C)C
71 µg/mL (≈ 217 µM)	CCCC[C@@H](/C=N/NC(=O)N1CCCC1)NC(=O)OC(C)(C)C

tested on: Rattus norvegicus; assay: (§2) Terminal half life in iv dosed Han Wistar rat; type: ADME, organism-based; conditions: in vivo

beta t1/2	SMILES
9 min	CCCC[C@@H](/C=N/NC(=O)N1CCOCC1)NC(=O)O[C@@H](C)Cc1ccccc1
10 min	CCCC[C@@H](/C=N/NC(=O)N1CCc2ccccc21)NC(=O)OC(C)(C)C
18 min	CCCC[C@@H](/C=N/NC(=O)N1CCCC1)NC(=O)OC(C)(C)C

tested on: not listed separately; assay: as §2; type: ADME, organism-based; conditions: Han Wistar, in vivo, read-out: beta t1/2

half-life	SMILES
39 min	CCCC[C@@H](/C=N/NS(=O)(=O)N(C)C)NC(=O)OC(C)(C)C
22 min	CCCC[C@@H](/C=N/NC(=O)N1CCOCC1)NC(=O)OC(C)(C)C

target: T2, Cathepsin K (Rattus norvegicus, UniProt O35186); assay: Inhibition of rat cathepsin K; conditions: not given
T2 sequence (O35186 whole entry): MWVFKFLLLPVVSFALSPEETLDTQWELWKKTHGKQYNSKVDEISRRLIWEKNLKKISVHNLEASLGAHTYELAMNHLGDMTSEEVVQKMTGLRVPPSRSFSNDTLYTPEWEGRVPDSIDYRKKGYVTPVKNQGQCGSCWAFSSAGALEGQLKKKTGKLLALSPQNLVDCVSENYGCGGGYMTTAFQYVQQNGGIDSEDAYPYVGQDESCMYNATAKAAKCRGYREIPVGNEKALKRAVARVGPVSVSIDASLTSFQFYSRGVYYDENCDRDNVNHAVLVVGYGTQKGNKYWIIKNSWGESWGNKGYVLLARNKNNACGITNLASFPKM

IC50	SMILES
130 nM	CCCC[C@@H](/C=N/NC(=O)N1CCOCC1)NC(=O)O[C@@H](C)Cc1ccccc1

target: T3, Cathepsin K (Homo sapiens, UniProt P43235); assay: Inhibition of recombinant human cathepsin K in a fluorescence assay; conditions: not given
T3 sequence (P43235 whole entry): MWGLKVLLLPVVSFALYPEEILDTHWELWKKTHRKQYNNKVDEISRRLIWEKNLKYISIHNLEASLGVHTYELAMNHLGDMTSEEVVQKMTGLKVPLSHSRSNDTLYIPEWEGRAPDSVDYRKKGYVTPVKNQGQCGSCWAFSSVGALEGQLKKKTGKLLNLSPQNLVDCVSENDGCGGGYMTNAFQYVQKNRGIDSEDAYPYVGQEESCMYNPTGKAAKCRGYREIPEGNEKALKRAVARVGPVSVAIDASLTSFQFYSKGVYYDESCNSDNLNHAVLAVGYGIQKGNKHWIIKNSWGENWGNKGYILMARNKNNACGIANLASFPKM

SMILES	IC50
CC(C)C[C@@H](/[13CH]=N/NC(=O)N1CCOCC1)NC(=O)OC(C)(C)C	110 nM
CCCC[C@@H](/C=N/NC(=O)NC(C)(C)C)NC(=O)OC(C)(C)C	160 nM
CCCC[C@@H](/C=N/NC(=O)NC(C)C)NC(=O)OC(C)(C)C	170 nM
CCCC[C@@H](/C=N/NC(=O)Nc1ccccc1)NC(=O)OC(C)(C)C	400 nM
CCCC[C@@H](/C=N/N=C(N)N)NC(=O)OC(C)(C)C	33000 nM
CCCC[C@@H](/C=N/N=C(\S)NC(C)C)NC(=O)OC(C)(C)C	170 nM
CCCC[C@@H](/C=N/NC(=O)N(C)C)NC(=O)OC(C)(C)C	72 nM
CCCC[C@@H](/C=N/N(C)C(=O)NCCc1ccccc1)NC(=O)OC(C)(C)C	11000 nM
CCCC[C@@H](/C=N/NC(=O)N1CCc2ccccc21)NC(=O)OC(C)(C)C	48 nM
CCCC[C@@H](/C=N/NS(=O)(=O)N(C)C)NC(=O)OC(C)(C)C	72 nM

The remaining lines, values ahead:

IC50	SMILES
0.94 nM	CCCC[C@@H](/C=N/NC(=O)N1CCOCC1)NC(=O)O[C@@H](C)Cc1ccccc1
24 nM	CCCC[C@@H](/C=N/NC(=O)C(F)(F)F)NC(=O)OC(C)(C)C
0.33 nM	CCCC[C@@H](/C=N/NC(=O)N1CCOCC1)NC(=O)O[C@H](Cc1ccccc1)C(C)C
35 nM	CCCC[C@@H](/C=N/NC(=O)N1CCOCC1)NC(=O)OC(C)(C)C
1.1 nM	CCCC[C@@H](/C=N/NC(=O)N1CCc2ccccc21)NC(=O)OC1(Cc2ccccc2)CCCC1
36 nM	CCCC[C@@H](/C=N/NC(=O)N1CCCC1)NC(=O)OC(C)(C)C

tested on: not listed separately; assay: Permeability across MDCK cells; type: ADME, cell-based, Canis lupus familiaris; conditions: dog

SMILES	Papp
CCCC[C@@H](/C=N/NC(=O)N1CCc2ccccc21)NC(=O)OC(C)(C)C	15 ×10⁻⁶ cm/s
CCCC[C@@H](/C=N/NS(=O)(=O)N(C)C)NC(=O)OC(C)(C)C	77 ×10⁻⁶ cm/s

Further lines, results first:

Papp	SMILES
14 ×10⁻⁶ cm/s	CCCC[C@@H](/C=N/NC(=O)N1CCOCC1)NC(=O)O[C@@H](C)Cc1ccccc1
6.2 ×10⁻⁶ cm/s	CCCC[C@@H](/C=N/NC(=O)N1CCOCC1)NC(=O)OC(C)(C)C
20 ×10⁻⁶ cm/s	CCCC[C@@H](/C=N/NC(=O)N1CCCC1)NC(=O)OC(C)(C)C

target: Procathepsin L (Homo sapiens, UniProt P07711); assay: Inhibition of recombinant human cathepsin L in a fluorescence assay; conditions: not given
Sequence (P07711 whole entry): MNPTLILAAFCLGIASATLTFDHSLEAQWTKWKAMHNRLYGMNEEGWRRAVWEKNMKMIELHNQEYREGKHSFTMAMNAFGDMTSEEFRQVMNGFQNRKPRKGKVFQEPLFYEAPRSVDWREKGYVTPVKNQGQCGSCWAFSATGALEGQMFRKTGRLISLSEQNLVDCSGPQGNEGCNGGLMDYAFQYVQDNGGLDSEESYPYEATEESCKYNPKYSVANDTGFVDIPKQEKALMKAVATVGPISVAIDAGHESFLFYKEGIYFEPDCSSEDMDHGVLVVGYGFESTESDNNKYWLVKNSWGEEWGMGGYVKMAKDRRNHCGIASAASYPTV

SMILES	IC50
CCCC[C@@H](/C=N/NC(=O)N1CCc2ccccc21)NC(=O)OC(C)(C)C	14000 nM
CCCC[C@@H](C=O)NC(=O)OC(C)(C)C	8900 nM
CCCC[C@@H](C=O)NC(=O)O[C@H](Cc1ccccc1)C(C)C	12 nM

More lines, now with the values ahead:

IC50	SMILES
540 nM	CCCC[C@@H](/C=N/NC(=O)N1CCOCC1)NC(=O)O[C@@H](C)Cc1ccccc1
12 nM	CCCC[C@@H](/C=N/NC(=O)N1CCOCC1)NC(=O)O[C@H](Cc1ccccc1)C(C)C
11000 nM	CCCC[C@@H](/C=N/NC(=O)N1CCOCC1)NC(=O)OC(C)(C)C
3400 nM	CCCC[C@@H](/C=N/NC(=O)N1CCc2ccccc21)NC(=O)OC1(Cc2ccccc2)CCCC1

tested on: not listed separately; assay: Clearance in Han Wistar rat; type: ADME, organism-based; conditions: in vivo

clearance	SMILES
25 mL/min/kg	CCCC[C@@H](/C=N/NS(=O)(=O)N(C)C)NC(=O)OC(C)(C)C
43 mL/min/kg	CCCC[C@@H](/C=N/NC(=O)N1CCOCC1)NC(=O)OC(C)(C)C
